Here are results for two molecules from patent US12193465B2, “Materials and methods for extending shelf-life of foods” (JP Laboratories, Inc., priority 2021, dated 2025).

The subject of assay [1] is fungus. In words: Fungus growth on treated foods stored in closed containers at room temperature. The note with it: for Spoilage Time - Sample: Fungus; for Effectiveness on ginger: pre-exposure and sachet method. The source says:
(§1) Most of the foods changed color or texture.
Glass jars and bottles were also used. The containers were snap-closed or with a lid.
(§2) These bags were sealed with a heat sealer.
(§3) The assembly was shaken periodically.

Assay [2] is described as follows: Color change / browning / yellowing of foods (keeping produce green longer). The procedure:
(§4) All studies were conducted at a room temperature of about 25° C. To determine the effectiveness of a shelf-life extender, a control sample which was untreated with any shelf-life extenders, was tested identical to the test samples. […] All studies in those Examples of Tables 1-6 were conducted in closed plastic or glass containers. Containers, such as plastic containers, without or with lids having holes can be used if it is advantageous to let excess moisture escape or to prevent condensation of moisture released by some produce.
(§5) Food exposed to preservatives or by a sachet was placed in typically polystyrene or acrylic containers depending upon the size and number of food items. Glass jars and bottles were also used. The containers were snap-closed or with a lid. The containers were purchased mainly from Amazon or Webstaurant.com store. When needed, plastic containers with holes or without lids were used.
(§6) For controlled exposure and a constant supply of a preservative to foods, sachets containing one or more drops of preservatives were used. Sachets were made by placing an appropriate amount of a preservative in a plastic bag containing a piece of paper and heat sealing the bag. The sachet bag materials used were Tyvek® for solid preservative, polyethylene, polyester and high barrier multilayer films were used for liquid preservatives. These bags were sealed with a heat sealer. The sachet was typically applied on one side of the container containing food.
(§7) A piece of paper napkin was taped inside a 100 microns thick polyethylene or polyester Ziploc bag. The size of the bag varied from ˜20 cm×30 cm to ˜60 cm×90 cm depended on the sample with sandwich bags up to gallon bags being exemplary. The paper napkin was wetted with 0.1-0.5 ml of a preservative or a mixture of preservatives. A tray of aluminum, stainless steel or glass containing the foods was placed inside the plastic (polyethylene, polyester and multilayer-laminated) bag and almost closed by locking the Ziploc. Air was blown with an air blower from the unclosed end until the bag was fully blown and then quickly closed tightly by locking the remaining Ziploc. If a preservative was a sublimable solid, it was placed in a petri dish and then placed inside the bag in the tray before blowing air. The exposure time was varied from five minutes to a day depending upon the food. […] The assembly was shaken periodically. After the predetermined time, the tray containing produce was removed from the bag, allowed to de-gas for 10-30 minutes in air and the produce was then placed in an appropriately sized container. Glass and stainless steel containers with lids were also often used.
(§8) A solution of one or more preservatives was prepared in a large (e.g., 2-10 liter) glass beaker or a jar. A sack containing the food was prepared by placing the food in a plastic mesh bag. The sack was placed in the solution of the preservative. A smaller glass beaker containing proper amount of water was place over the package to keep the sack soaked in the solution of the preservative during the treatment. The solution was stirred either with a plastic spatula or with a magnet over a magnetic stirrer. After treatment, the mesh sack was removed, the produce was washed in a tray with running water, strained and air dried at 30° C. in an air blowing oven for about 5-10 minutes, while shaking the tray or turning the food periodically followed by placing the sample in an appropriate container.
(§9) The food was placed in mesh trays and sprayed with an aqueous solution (1-10%) of a preservative while shaking the tray or turning the food. The solution was allowed to drain from the tray and the food was air dried in an air blowing oven at 30° C. for about 5-10 minutes, while shaking the tray or turning food periodically followed by placing the sample in an appropriate container.

Assay [3] concerns grains, legumes, potatoes, garlic. The assay can be described thus: Germination / sprouting of grains, legumes and tubers. The note with it: for Spoilage Time - Sample: Example 129, Sprouting, Small yellow potatoes, Sachet, 100% relative humidity, control 8 days.
Source text: as §2, §3

In assay [4] the test system is green tomato, papaya, banana, mango, peppers, tindora. In words: Ripening of fruits and vegetables (delayed or expedited). The note with it: Ripening, Green tomato, 2 hrs P-E. The procedure: as §4, §6, §7, §8
The untreated (control sample) and treated food were placed in proper sized plastic containers and the containers were tightly closed.
The following major criteria were used for determining spoilage of foods: growth of fungus, color change, unpleasant odor, wilting, firmness or shriveling, change of state (liquid to solid or vice versa), and sprouting or germination Example 10: Sources of food.

Assay [5] relates to avocado. In words: Softening / rotten inside (spoiled flesh) of avocado.
Source text: as §1, §3

The subject of assay [6] is parval, methi, coriander, radish, guar. The assay can be described thus: Shriveling / wilting / dehydration / becoming wet of produce. The conditions noted are these: Example 130, Wilting, Coriander, 1 hr P-E, control 11 days.
Source text: as §1, §3

Assay [7] has as its system cut lilies. In words: Keeping cut flowers longer (browning of petals). The conditions noted are these: Example 118, 0.01% solution, control <12 days. The source says:
Other preservative tested with flowers include: cyclohexanone, 2-cyclohexen-1-one, 1-methyl-1-cyclopentene, 3-methoxyphenylboronic acid, 3-chlorophenylboronic acid, benzyl ether, choline chloride and hydrogen sulfide. Flowers can be exposed to very low concentration, e.g., in ppm, of vapor of the shelf-life extenders to keep them fresher longer.

Assay [8] can be described thus: General shelf-life extension of foods (spoilage criteria of Example 9). The conditions noted are these: for Effectiveness for controlling one or more spoilage criteria: variety of foods. The procedure:
as §4, §5, §6, §7, §8, §9

Assay [9] can be described thus: Color loss of meat and fish. The conditions noted are these: meat and fish.
Source text: as §1, §2

Regarding `CC(=O)CC(C)=O` [AA, Acetylacetone], the “Spoilage Time - Sample” value in assay [1] (Example 120, Farmer's cheese, 0.5 hr P-E, control 5 days) is 34 days; in [1] (Example 120, Farmer's cheese, 0.5 hr P-E, control 5 days, listed as Acetylacetone), “delayed the growth of fungus”; in [1] (Example 122, Raw milk Ricotta cheese, Sachet, control 3 days) it was 35 days; in assay [1] (Example 123, Raspberry, 1 hr P-E, control 5 days), 31 days; in [1] (Example 124, Yellow pearl onions, Sachet, control 24 days), 48 days; in assay [2] (Example 119, Color change, Parsley, 0.25 hr P-E, control 7 days), 21+ days. The “Spoilage Time - Sample” value in assay [2] (Example 119, Color change, Parsley, 0.25 hr P-E, control 7 days, listed as acetylacetone) is > 21 days; in assay [3] it was 48+ days; in [3] (listed as acetylacetone), > 48 days; in [4] (Example 126, control 14 days), 18 days; in assay [4] (Example 126, control 14 days, listed as acetylacetone) it was “significantly delayed”; in assay [5] (Example 127, Rotten inside, Avocado, 1 hr P-E, control 7 days), 9 days. Moreover, the “Spoilage Time - Sample” value is reported as > 9 days in assay [5] (Example 127, Rotten inside, Avocado, 1 hr P-E, control 7 days, listed as acetylacetone); 11 days in assay [5] (Example 128, Rotten inside, Haas Avocado, 1 hr P-E, control 11 days); 21+ days in assay [6]; > 21 days in assay [6] (listed as acetylacetone); 12+ days in [7]; > 12 days in assay [7] (listed as acetylacetone). For the same molecule, the Effectiveness on ginger result in [1] is recorded as “found effective”. Besides, the Fungus growth entry in [1] (strawberries, raspberries, blackberries and lychee) is recorded as “either prevented or significantly delayed”. The “Shelf-life of flowery vegetables” value in assay [8] is reported as “extended shelf-life”. Besides, the “Effectiveness for controlling one or more spoilage criteria” value in assay [8] is “effective to a greater or lesser extent”.
As for `O=C1CCCCC1` [CY, Cyclohexanone], the “Spoilage Time - Sample” value in assay [1] (Example 93, Raspberry, Sachet, control 5 days) is given as 9 days; in [1] (Example 95, Blueberry, Sachet, control 5 days) it was 67 days; in assay [1] (Example 96, Farmer's cheese, 0.5 hr P-E, control 5 days), 34 days; in assay [1] (Example 96, Farmer's cheese, 0.5 hr P-E, control 5 days, listed as cyclohexanone) it was “delayed the growth of fungus”; in assay [1] (Example 98, Lychee, Sachet, control 3 days), 31 days; in assay [1] (Example 99, Cheesecake, Sachet, control 6 days), 8+ days. For the same molecule, the “Spoilage Time - Sample” value in [1] (Example 100, Puri, 16 hrs P-E, control 5 days) is 70+ days; in assay [1] (Example 101, Rotala, 16 hrs P-E, control 5 days), 70+ days; in assay [1] (Example 102, Monterey cheese, Sachet, control 7 days), 10+ days; in assay [1] (Example 102, Monterey cheese, Sachet, control 7 days, listed as cyclohexanone), “either prevented or significantly delayed”; in [2] (Example 92, Browning, Coriander, Sachet, control 11 days) it was 11+ days; in [2] (Example 92, Browning, Coriander, Sachet, control 11 days, listed as cyclohexanone), “significantly delayed”. For the same molecule, the “Spoilage Time - Sample” value in assay [4] (Example 106, control 10 days) worked out at 18 days; in assay [5] (Example 107, Softening, Florida avocado, 2 hrs P-E, control 2 days) it was 2 days; in assay [5] (Example 108, Softening, Avocado, 2 hrs P-E, control 2 days) it was 2 days. Further, the Fungus growth entry in assay [1] (Indian millet bread, Indian wheat bread (roti), cheesecake, sachet or pre-exposure to vapors) was “either prevented or significantly delayed”. For the same molecule, in assay [1], the Effectiveness on ginger result is “found effective”. In addition, the “Effectiveness at extending the shelf-life of potatoes” value in [3] (potatoes) is “effective”. In addition, the “Spoiling of the flesh with development of fungus” value in assay [5] (avocados, Examples 77, 78, 107, 108, 113 & 171) is reported as “significantly delayed”. In addition, the “Improvements with meat and fish” value in assay [9] is listed as “demonstrated improvements”. Also, the “Shelf-life of flowery vegetables” value in [8] is listed as “extended shelf-life”. Also, the “Shelf-life of shelled and unshelled peanuts” value in assay [8] (peanuts) is listed as “extended”. For the same molecule, in assay [8] (tofu), the “Effectiveness as shelf-life extender” value was “effective”. In addition, the “Effectiveness for controlling one or more spoilage criteria” value in assay [8] is given as “effective to a greater or lesser extent”.
